Each structure is given as a SMILES string.

The IC50 is the point on the concentration scale where inhibition reaches its midpoint. The low end stands for greater potency, the high end for weaker potency.

In this assay the test system is PI 3-kinase immunoprecipitated from human platelets. As to the kind of experiment: In vitro PI 3-kinase assay (32P incorporation into PI). In kind it is biochemical. The conditions noted are these: PI 3-kinase from human platelets, PI substrate. As to the method: The effect of TGX-25, TGX-33, TGX-37, TGX-40, TGX-41, TGX-57, TGX-84, TGX-90, TGX-93, TGX-98, TGX-99, TGX-101, TGX-106, TGX-107, TGX-108, TGX-109, TGX-111, TGX-112, TGX-113, TGX-115, TGX-120, TGX-121, TGX-123, TGX-124, TGX-126, TGX-127, TGX-130 or TGX-131on PI 3-kinase activity was determined using an in vitro PI 3-kinase assay. This assay was performed using PI 3-kinase immunoprecipitated from human platelets as the enzyme and PI as the substrate. The PI 3-kinase activity was quantitated by measuring the enzymatic incorporation of [^32P] into PI, forming PI([^32P]-3)P, as previously described (Susa et al., 1992, The Journal of Biological Chemistry 267(32):22951-22956.
Washed human platelets were lysed in Triton X-100 lysis buffer (10 mM Tris, pH 7.4, 1% Triton X-100, 2 mM EDTA, 1 mM PMSF) for 30 minutes. The Triton X-100 insoluble fraction was removed by centrifugation of the cell lysates at 15,000 g for 10 minutes. PI 3-kinase was immunoprecipitated by mixing 500 μg of the cell lysate with 1 μg of a rabbit anti-rat antibody against the p85/110 form of PI 3-kinase and 30 μl of 50% Protein A-sepharose beads for 2 hours at 4° C. The Protein A-sepharose-bound PI 3-kinase was isolated by pelleting the beads at 15,000 g for 5 seconds, and washing three times with ice-old Triton X-100 lysis buffer followed by four washes with PI 3-kinase assay buffer (20 mM HEPES, pH 7.4, 1 mM EGTA, 5 mM MgCl2).
PI stored in CHCl3 was dried under N2, resuspended in the lipid buffer (50 mM HEPES, pH 7.2, 1 mM EDTA) at a final concentration of 330 μg/ml, and sonicated for 6 minutes on ice. PI([^32P]-3)P was generated by mixing the immunoprecipitated PI 3-kinase for 20 minutes with 40 μl of the PI, 10 μl of ATP (1 mM) and ^32P-r-ATP (0.5 μCi, 1 μCi/nmol), 10 μl of 10× kinase buffer, in a final assay volume of 100 μl adjusted with H2O. TGX-25, TGX-33, TGX-37, TGX-40, TGX-41, TGX-57, TGX-84, TGX-90, TGX-93, TGX-98, TGX-99, TGX-101, TGX-106, TGX-107, TGX-108, TGX-109, TGX-111, TGX-112, TGX-113, TGX-115, TGX-120, TGX-121, TGX-123, TGX-124, TGX-126, TGX-127, TGX-130 or TGX-131 was preincubated with the PI 3-kinase for 5 minutes prior to the addition of ATP. The assay was terminated with 100 μl of 1 N HCl, and the PI([^32P]-3)P product extracted with 200 μl chloroform:methanol (1:1) and 500 μl 2 M KCl. The PI([^32P]-3)P in the chloroform phase was resolved by thin layer chromatography using a solvent system containing CHCl3:MeOH:HAC:H2O (43:38:5:7) (v:v:v:v), and visualized by autoradiography. The PI([^32P]-3)P spots were then scraped off from the TLC plates, deacylated with 1 ml methylamine:butanol:methanol (42:9:47) (v:v:v) for 4 hours at 53° C., and quantitated using a liquid scintillation counter (LKB 1209 RackBETA).
Regarding `Cc1cc(CCc2ccncc2)c2nc(N3CCOCC3)cc(=O)n2c1` [TGX-98], half-maximal inhibition (IC50) required 1 µM.

Molecule `Cc1cc(-c2ccccc2C(F)(F)F)c2nc(N3CCOCC3)cc(=O)n2c1` [TGX-142] yielded an IC50 of 2 µM. Compared with the last molecule, the IC50 is about 2-fold higher.

The molecule `Cc1cc(-c2ccccc2)c2nc(N3CCOCC3)cc(=O)n2c1` [TGX-41] gave an IC50 of around 9.8 µM.

For the molecule `Cc1cc(Nc2ccccc2C(F)(F)F)c2nc(N3CCOCC3)cc(=O)n2c1` [TGX-147], 5 µM corresponded to half-maximal inhibition (IC50).

As for `Cc1cc(NCc2ccccn2)c2nc(N3CCOCC3)cc(=O)n2c1` [TGX-161], 0.5 µM corresponded to half-maximal inhibition (IC50).

For `Cc1cc(N[C@@H](C)c2ccccc2)c2nc(N3CCOCC3)cc(=O)n2c1` [TGX-124], the IC50 was 1 µM.

In the case of `O=c1cc(N2CCOCC2)[nH]c2c(Cc3ccccc3)cccc12` [TGX-57, 8-Benzyl-2-morpholinoquinolone], 2 µM corresponded to half-maximal inhibition (IC50).

For the molecule `Cc1c(Oc2ccccc2)ccc2c(=O)cc(N3CCOCC3)oc12` [TGX-160], half-maximal inhibition (IC50) required 2 µM.

Molecule `O=c1cc(N2CCOCC2)oc2cc(OCc3cccnc3)ccc12` [TGX-144] showed an IC50 of 2 µM.

In the case of `Cc1ccc(Oc2cc(C)cn3c(=O)cc(N4CCOCC4)nc23)cc1` [TGX-109], the IC50 is 1 µM. This IC50 is about 2-fold lower than that of the molecule before.

Turning to `Cc1cc(-c2ccsc2)c2nc(N3CCOCC3)cc(=O)n2c1` [TGX-93], the IC50 is 1 µM. In other words, the single-digit micromolar range.

`O=c1cc(N2CCOCC2)nc2c(Oc3ccccc3)cccn12` [TGX-141, 2-Morpholinyl-8-phenoxy-4H-pyrido[1,2a]pyrimidin-4-one] displayed an IC50 of 1 µM.

The molecule `Cc1ccccc1-c1cccc2c(=O)cc(N3CCOCC3)oc12` [TGX-145, 2-morpholinyl-8-(2-methylphenyl)-4H-1-benzopyran-4-one] registered an IC50 of 2 µM. Against the preceding molecule, the IC50 is about 2-fold higher.

In the case of `O=c1cc(N2CCOCC2)oc2c(-c3ccc(F)cc3)cccc12` [TGX-165, 2-morpholinyl-8-(4-fluorophenyl)-4H-1-benzopyran-4-one], the midpoint of inhibition, the IC50, lay at 1 µM.

Take `Cc1c(OCc2ccccc2)ccc2c(=O)cc(N3CCOCC3)oc12` [TGX-154]: the midpoint of inhibition, the IC50, lay at 10 µM.

Regarding `Cc1ccc(S(=O)(=O)Oc2cccc3c(=O)cc(N4CCOCC4)[nH]c23)cc1` [TGX-138], 1 µM corresponded to half-maximal inhibition (IC50).

On to `Cc1cc(NCC2CCNCC2)c2nc(N3CCOCC3)cc(=O)n2c1` [TGX-139], for which inhibition was half-maximal at 1 µM (IC50).

With `Cc1ccc(Oc2cccc3c(=O)cc(N4CCOCC4)[nH]c23)cc1` [TGX-113], half-maximal inhibition (IC50) was put at 0.5 µM.

For `Cc1ccc(Cc2cccc3c(=O)cc(N4CCOCC4)[nH]c23)cc1` [TGX-106], the IC50 stood at 2 µM.

As for `O=c1cc(N2CCOCC2)oc2c(OCc3cccnc3)cccc12` [TGX-132], the IC50 stood at 1 µM.

`Cc1c(Oc2ccccc2)ccc2c(=O)cc(N3CCOCC3)oc12` [TGX-158]: the concentration for half-maximal inhibition (IC50) stood at 5 µM.

Take `Cc1cc(NCc2ccc(Cl)cc2)c2nc(N3CCOCC3)cc(=O)n2c1` [TGX-108]: 1 µM corresponded to half-maximal inhibition (IC50).

Take `Cc1c(Oc2ccccc2)ccc2c(=O)cc(N3CCOCC3)oc12` [TGX-157]: the midpoint of inhibition, the IC50, lay at 5 µM.

In the case of `O=c1cc(N2CCOCC2)nc2c(-c3ccccc3)cccn12` [TGX-37], the IC50 is around 10.5 µM.

Regarding `O=c1cc(N2CCOCC2)oc2c(-c3ccccc3Cl)cccc12` [TGX-146, 2-morpholinyl-8-(2-chlorophenyl)-4H-1-benzopyran-4-one], the IC50 is 0.5 µM. This lies in the sub-micromolar range.

With `Cc1cc(Nc2ccccc2O)c2nc(N3CCOCC3)cc(=O)n2c1` [TGX-130], the IC50 came to 0.2 µM.

`O=c1cc(N2CCOCC2)[nH]c2c(Cc3ccc(F)cc3)cccc12` [TGX-99] showed an IC50 of 1 µM.

Molecule `Cc1cc(C2CCN(C)C2=O)c2nc(N3CCOCC3)cc(=O)n2c1` (centres unmarked) [TGX-153] registered a 50% inhibitory concentration (IC50) of 20 µM. This IC50 lies about 20-fold higher than the previous one.

Consider `Cc1cc(Nc2ccncc2)c2nc(N3CCOCC3)cc(=O)n2c1` [TGX-120], for which the midpoint of inhibition, the IC50, lay at 1 µM.

In turn, `O=C(O)c1cccc(Oc2cccc3c(=O)cc(N4CCOCC4)[nH]c23)c1` [TGX-151] registered an IC50 of 0.5 µM. This IC50 is about 2-fold lower than that of the molecule before.

`Cc1cc(Nc2ccc(Cl)cc2)c2nc(N3CCOCC3)cc(=O)n2c1` [TGX-107] gave a 50% inhibitory concentration (IC50) of 1 µM.

Take `Cc1cccn2c(=O)cc(N3CCOCC3)nc12` [TGX-25]: the IC50 was around 11.1 µM.

These data come from patent US7405211B2, “Therapeutic morpholino-substituted compounds” (AstraZeneca AB, priority 2000, dated 2008).
